Columns and labels:
Assay in all cases: Antifungal growth assay in potato dextrose broth, 24-well
Format in all cases: cell-based
Design in all cases: key: NI, no inhibition; p (partial), at least 50% inhibited
[1] = test system: Aphanomyces sp.; conditions: 2x assays
Method: (§1) Fungi to be tested were propagated on potato dextrose agar (PDA) plates at room temperature. Stock solutions of pseudomycins and depsipeptide were suspended in dimethylsulfoxide (DMSO) (Sigma) at 5 mg/ml and stored at −20C. Serial dilutions of compounds were done the day of the experiment. All serial dilutions were made in DMSO. […] These are noted in the raw data section.
(§2) Assays were performed in 24-well cell culture clusters (Costar 3524), with 990 ul potato dextrose broth (PDB, Difco) and 10 ul of the compound to be tested in each well. Initial concentrations tested were 50-1.56 ug/ml (final concentration of pseudomycin). Actual concentrations of pseudomycins tested were 50, 25, 12.5, 6.25, 3.12 and 1.56 ug/ml. Each well was inoculated with the appropriate fungus. Unless noted, the fungal inoculum consisted of an ˜4 mm^2 piece of PDA with fungal mycelium. The exceptions were as follows. Ustilago maydis: this fungus grows much like a yeast on PDA, and cells were scraped from the PDA stock plate, resuspended in PDB and 10 ul inoculum added to each well. Monilinia sp.: this fungal mycelium grows as a very loose sheet on top of PDA and would not adhere to agar blocks. Fungal mycelium was ground with a metal rod in 500 ul PDB and 10 ul inoculum was added to each well. Mycosphaeella fijiensis, Septoria passerinii, Septoria triticii: these fungi all grow very slowly and the results were difficult to score if a small piece of agar with fungal mycelium on it was used as an inoculum. For these fungi, the mycelium was ground with a metal rod in 500 ul PDB and 10 ul inoculum was added to each well.
(§3) Wells were scored for fungal growth at two days and five days. Some slow growing fungi were scored at later days for growth because assessment was not possible at two or five days. Growth was scored by comparison to a control consisting of fungus inoculated into 990 ul potato dextrose broth and 10 ul of DMSO (Dimethylsulfoxide). An additional control consisting of fungal inoculum in PDB only was performed to ensure that the DMSO was not inhibitory to fungal growth.
(§4) For assays that were repeated, new stock solutions were made from a second shipment of pseudomycins. Note that pseudomycin B′ and depsipeptide stock solutions were remade from first shipment materials because these were not included in the second shipment. […] Actual concentrations of pseudomycins tested were 2, 1, 0.5, 0.25, 0.125 and 0.0625 ug/ml. A-PO4 and A-FB=pseudomycin A phosphate salt and free base respectively.
(§5) Table 2: Two day results—concentration indicated is lowest level of compound (ug /ml) that results is no growth. NI, no inhibition; p (partial), at least 50% inhibited; -, not determined. If number of assays was greater than one, number of assays performed on the fungus is noted in parentheses. For several slow-growing fungi, days elapsed before observation (if different than two) are noted.
(§6) Table 3: Five day results—concentration indicated is lowest level of compound (ug /ml) that results in no growth. NI, no inhibition; p (partial), at least 50% inhibited; -, not performed on the fungus is noted in parentheses. For several slow-growing fungi, days elapsed before observation (if different than five) are noted.

[2] = test system: Tapesia acuformis; conditions: 2x assays
Method: as §1, §2, §3, §4, §5, §6

[3] = test system: Drechslera tritici-repentis
Method: as §1, §2, §3, §4, §5, §6

[4] = test system: Drechslera teres
Method: as §1, §2, §3, §4, §5, §6

[5] = test system: Fusarium culmorum
Method: as §1, §2, §3, §4, §5, §6

[6] = test system: Diplodia natalensis
Method: as §1, §2, §3, §4, §5, §6

[7] = test system: Bipolaris sorokiniana
Method: as §1, §2, §3, §4, §5, §6

[8] = test system: Botrytis alli; conditions: 2x assays
Method: as §1, §2, §3, §4, §5, §6

[9] = test system: Alternaria helianthi; conditions: 2x assays
Method: as §1, §2, §3, §4, §5, §6

[10] = test system: Fusarium solani
Method: as §1, §2, §3, §4, §5, §6

[11] = test system: Fusarium avenaceum
Method: as §1, §2, §3, §4, §5, §6

[12] = test system: Phytophthora parasitica
Method: as §1, §2, §3, §4, §5, §6

[13] = test system: Cochliobolus carbonum
Method: as §1, §2, §3, §4, §5, §6

[14] = test system: Phoma chrysamthecola; conditions: five day results
Method: as §1, §2, §3, §4, §5, §6

[15] = test system: Fusarium oxysporum cubense
Method: as §1, §2, §3, §4, §5, §6

[16] = test system: Phytophthora cinnemani
Method: as §1, §2, §3, §4, §5, §6

[17] = test system: Phyllosticta maydis
Method: as §1, §2, §3, §4, §5, §6

[18] = test system: Pestalotiopsis microspora NE-32
Method: as §1, §2, §3, §4, §5, §6

[19] = test system: Sclerotinia sclerotiorum; conditions: 2x assays
Method: as §1, §2, §3, §4, §5, §6

Substance	lowest level of compound that results in no growth ([1]; five day results)	lowest level of compound that results in no growth ([1]; two day results)	lowest level of compound that results in no growth ([2]; five day results)	lowest level of compound that results in no growth ([2]; two day results)	lowest level of compound that results in no growth ([3]; five day results)	lowest level of compound that results in no growth ([3]; two day results, 2x assays) [µg/mL]	lowest level of compound that results in no growth ([4]; five day results)	lowest level of compound that results in no growth ([4]; two day results)	lowest level of compound that results in no growth ([5]; five day results)	lowest level of compound that results in no growth ([5]; two day results)	lowest level of compound that results in no growth ([6]; five day results)	lowest level of compound that results in no growth ([6]; two day results)	lowest level of compound that results in no growth ([7]; five day results)	lowest level of compound that results in no growth ([7]; two day results)	lowest level of compound that results in no growth ([8]; five day results)	lowest level of compound that results in no growth ([8]; two day results)	lowest level of compound that results in no growth ([9]; five day results)	lowest level of compound that results in no growth ([9]; two day results)	lowest level of compound that results in no growth ([10]; five day results)	lowest level of compound that results in no growth ([10]; two day results)	also measured
Pseudomycin B′	NI	25 µg/mL	NI	NI	p at 50	50	NI	NI	NI	NI	NI	NI	NI	NI	NI	NI	25 µg/mL	25 µg/mL	NI	NI	lowest level of compound that results in no growth ([11]; five day results): NI; lowest level of compound that results in no growth ([11]; two day results): NI; lowest level of compound that results in no growth ([12]; five day results): NI; lowest level of compound that results in no growth ([12]; two day results): NI; lowest level of compound that results in no growth ([13]; five day results): NI; lowest level of compound that results in no growth ([13]; two day results): NI; lowest level of compound that results in no growth [14]: p at 50; lowest level of compound that results in no growth ([15]; five day results): NI; lowest level of compound that results in no growth ([15]; two day results): NI; lowest level of compound that results in no growth ([16]; five day results): NI; lowest level of compound that results in no growth ([16]; two day results): NI; lowest level of compound that results in no growth ([17]; five day results): NI; lowest level of compound that results in no growth ([17]; two day results): p at 50; lowest level of compound that results in no growth ([18]; five day results): NI; lowest level of compound that results in no growth ([18]; two day results): NI; lowest level of compound that results in no growth ([19]; five day results): NI; lowest level of compound that results in no growth ([19]; two day results): NI
Pseudomycin C	50 µg/mL	25 µg/mL	NI	NI	NI	50	NI	NI	NI	NI	NI	NI	NI	NI	NI	NI	NI	p at 50	NI	p at 50	lowest level of compound that results in no growth ([11]; five day results): NI; lowest level of compound that results in no growth ([11]; two day results): NI; lowest level of compound that results in no growth ([12]; five day results): NI; lowest level of compound that results in no growth ([12]; two day results): NI; lowest level of compound that results in no growth ([13]; five day results): NI; lowest level of compound that results in no growth ([13]; two day results): NI; lowest level of compound that results in no growth [14]: NI; lowest level of compound that results in no growth ([15]; five day results): NI; lowest level of compound that results in no growth ([15]; two day results): NI; lowest level of compound that results in no growth ([16]; five day results): NI; lowest level of compound that results in no growth ([16]; two day results): NI; lowest level of compound that results in no growth ([17]; five day results): NI; lowest level of compound that results in no growth ([17]; two day results): p at 50; lowest level of compound that results in no growth ([18]; five day results): NI; lowest level of compound that results in no growth ([18]; two day results): NI; lowest level of compound that results in no growth ([19]; five day results): NI; lowest level of compound that results in no growth ([19]; two day results): NI
pseudomycin A-FB	NI	NI	NI	NI	NI	25	NI	NI	NI	NI	NI	NI	NI	NI	NI	NI	25 µg/mL	25 µg/mL	NI	p at 50	lowest level of compound that results in no growth ([11]; five day results): NI; lowest level of compound that results in no growth ([11]; two day results): NI; lowest level of compound that results in no growth ([12]; five day results): NI; lowest level of compound that results in no growth ([12]; two day results): NI; lowest level of compound that results in no growth ([13]; five day results): NI; lowest level of compound that results in no growth ([13]; two day results): NI; lowest level of compound that results in no growth [14]: p at 50; lowest level of compound that results in no growth ([15]; five day results): NI; lowest level of compound that results in no growth ([15]; two day results): NI; lowest level of compound that results in no growth ([16]; five day results): NI; lowest level of compound that results in no growth ([16]; two day results): NI; lowest level of compound that results in no growth ([17]; five day results): NI; lowest level of compound that results in no growth ([17]; two day results): p at 50; lowest level of compound that results in no growth ([18]; five day results): NI; lowest level of compound that results in no growth ([18]; two day results): p at 50; lowest level of compound that results in no growth ([19]; five day results): NI; lowest level of compound that results in no growth ([19]; two day results): NI

Source: patent US7326689B2, “Pseudomycins useful against plant diseases” (Eli Lilly and Company, priority 2000, dated 2008)
